# Assay results as given in patent US20170325451A1, “Use of Alkyl Gallate for Stimulating the Natural Defenses of Plants” (priority 2014, published 2017).
# Tests used:
# tobacco BY-2 cells = assay: Alkalinization of the extracellular medium of tobacco BY-2 cell cultures; format: cell-based; conditions: for alkalinization of the extracellular medium: molar concentrations from 2 to 5 mmol·L^−1, BY-2 cultures
# Procedure: The cell cultures are tobacco BY-2 cells maintained in cultures at 24° C., under stirring in darkness.
# EG solutions (molar concentrations from 0.5 mmol·L^−1 to 5 mmol·L^−1), MG (1 mmol·L^−1 and 5 mmol·L^−1), or PG solutions (1 mmol·L^−1 and 5 mmol·L^−1) are added to tobacco BY-2 cell cultures at time T0. The pH is measured continuously (every 10 min) in the extracellular medium for 150 minutes.
# The cell cultures are tobacco BY-2 cells maintained in cultures at 24° C., under stirring and in darkness.
# Two GA solutions (0.5 mmol·L^−1 and 5 mmol·L^−1) are added to tobacco BY-2 cell cultures at time T0. The pH is measured continuously (every 10 min) in the extracellular medium for 150 minutes. EG solutions at different molar concentrations (0.5 mmol·L^−1 and 5 mmol·L^−1) are used as controls.
# [1] = tested on: transcripts coding for pathogenesis-related proteins (PR1, PR2, PR3, PR5) in tobacco leaves; assay: Accumulation of PR transcripts in treated tobacco leaves (quantitative real-time PCR); format: in vivo
# Procedure: The markers for the acquired local response (ALR) are tested for in the tobacco leaves that have been treated by the infiltration method (20 infiltration points per leaf/50 μL per infiltration) or by spraying (sufficient quantity to cover the leaf and obtain saturation, or approximately 2 mL per leaf) at a rate of 3 leaves per plant (non-senescent basal leaves). The leaves treated are separated from the plant 4 days after treatment and frozen immediately in liquid nitrogen for grinding and extraction of the total RNA. The RNA is extracted in the presence of CTAB buffer according to the protocol described by Chang et al. (1993) [Chang S, Puryear J, Cairney J (1993) A simple and efficient method for isolation RNA from pine trees. Plant mol Biol rep 11: 113-116]. The total RNA is purified and treated by DNase I (1 U) and RNase inhibitor (40 U) (Euromedex), in order to eliminate any possible contamination of the genomic DNA. The total RNA assay is run on the spectrophotometer (NanoDrop-1000). The integrity of the RNA is checked by agarose gel electrophoresis (1%) by detection of the ribosomal RNA subunits. The complementary DNA is synthesized from 1 μg of total RNA using Euroscript Reverse Transcriptase (Eurogentec). The PCR reactions are carried out with the Mastermix for SYBR GREEN kit (Eurogentec) using the iCycler iQ5 software (Bio-Rad). The specificity of the amplification is verified by melting curve analysis. The gene coding for EF-1α is used as an internal control. The quantification of the transcripts is calculated according to the mathematical model developed by Pfaffl (2001). [Pfaffl (2001) A new mathematical model for relative quantification in real time RT-PCR. Nucl. Acids res 29: 2002-7]. […]
# 4 days after the infiltration, the transcripts coding for pathogenesis-related proteins (PR proteins) are measured by quantitative real-time PCR. The total RNA is extracted from the infiltrated tobacco leaves. The cDNA is synthesized, and the transcripts of interest are quantified using specific primers of the genes PR1, PR2 and PR3.
# tobacco leaf = assay: Infiltration of tobacco leaf: chlorosis and synthesis of autofluorescent compounds; format: in vivo; conditions: 4 days after infiltration; for production of autofluorescent compounds around the infiltration sites: solutions 5 mmol·L^−1, infiltrated
# Procedure: The plants are 8 weeks old, in the 12-15 leaf stage, cultured in a greenhouse or growing chamber.
# 50 μL of different EG solutions having molar concentrations (0.5 mmol·L^−1 to 5 mmol·L^−1) and of MG and PG solutions having a molar concentration of 5 mmol·L^−1 are infiltrated on the upper side of the tobacco leaf. The negative control is water; the positive control is salicylic acid (SA) at a molar concentration of […].
# The different plants are photographed 4 days after the infiltration.
# The negative control is water.
# [2] = GA solutions 58.8 and 5.88 mmol·L^−1, infiltrated
# [3] = 5 mmol·L^−1, infiltration, 4 days after treatment
# [4] = 5 mmol·L^−1, spraying, 4 days after treatment
# [5] = 50 mmol·L^−1, infiltration, 4 days after treatment
smiles,measurement,setting,value
"O=C(O)c1cc(O)c(O)c(O)c1 [GA, gallic acid, reference compound]",effect on the pH of the culture medium,"tobacco BY-2 cells; GA solutions 0.5 and 5 mmol·L^−1, 150 minutes",no effect on the pH
same,"accumulation of transcripts (PR1, PR2, PR3) compared to water","[1]; GA solution 5.88 mmol·L^−1, infiltration, 4 days after infiltration",does not induce a significant accumulation of transcripts
same,autofluorescent zones around the infiltration zones,tobacco leaf; [2],not accompanied by autofluorescent zones
same,chlorosis,tobacco leaf; [2],induce strong chlorosis
"COC(=O)c1cc(O)c(O)c(O)c1 [MG, methyl gallate]",alkalinization of the extracellular medium,tobacco BY-2 cells,induce a rapid alkalinization
same,production of autofluorescent compounds around the infiltration sites,tobacco leaf; UV 312 nm,induce the same phenomenon of production of autofluorescent compounds
"CCOC(=O)c1cc(O)c(O)c(O)c1 [EG, ethyl gallate]",alkalinization of the extracellular medium,tobacco BY-2 cells,induce a rapid alkalinization
same,Relative quantities of transcripts PR1,[1]; [3],6.7 ± 1.2
same,Relative quantities of transcripts PR2,[1]; [3],6.2 ± 1.7
same,Relative quantities of transcripts PR3,[1]; [3],5.6 ± 1.3
same,Relative quantities of transcripts PR1,[1]; [4],15 ± 0.4
same,Relative quantities of transcripts PR2,[1]; [4],32 ± 4.6
same,Relative quantities of transcripts PR3,[1]; [4],23 ± 7.1
same,Relative quantities of transcripts PR5,[1]; [4],14 ± 2.2
same,Relative quantities of transcripts PR1,[1]; [5],3.7 ± 1.3
same,Relative quantities of transcripts PR2,[1]; [5],23.4 ± 3.3
same,Relative quantities of transcripts PR3,[1]; [5],30.4 ± 5.3
same,"accumulation of transcripts that are markers of the defense reactions: PR1, PR2, PR3, PR5","[1]; EG solutions 5 and 50 mmol·L^−1, infiltration or spraying",induce the accumulation of transcripts
same,chlorosis,"tobacco leaf; EG solutions 0.5 to 5 mmol·L^−1, 50 μL infiltrated on tobacco leaf, natural light",do not induce chlorosis
same,production of autofluorescent compounds of the phytoalexin type around the infiltration sites,"tobacco leaf; EG solutions 0.5 to 5 mmol·L^−1, infiltrated, UV 312 nm",extensive production of autofluorescent compounds
"CCCOC(=O)c1cc(O)c(O)c(O)c1 [PG, propyl gallate]",alkalinization of the extracellular medium,tobacco BY-2 cells,induce a rapid alkalinization
same,production of autofluorescent compounds around the infiltration sites,tobacco leaf; UV 312 nm,induce the same phenomenon of production of autofluorescent compounds
